Where a name gives a salt, the structure may show the parent alone.
Legend:
[1] = tested on: SK-Mel-239 vemurafenib-resistant clone cells; test: SK-Mel-239 vemurafenib-resistant tumors in NOD Scid gamma mice; assay type: in vivo, human; conditions: GW3965 diet 100 mg/kg
[2] = tested on: B16F10, MeWo and SK-Mel-334.2 cells; test: Overall survival of mice bearing subcutaneous melanoma tumors; assay type: in vivo, mouse; conditions: chow supplemented with GW3965 100 mg/kg after tumor establishment
[3] = tested on: B-Raf^V600E/+; Pten^−/−; CDKN2A^−/− primary mouse melanoma cells; test: B-RafV600E/+; Pten−/−; CDKN2A−/− melanoma cells in syngeneic C57BL/6 mice; assay type: in vivo; conditions: GW3965 diet 100 mg/kg
Method: Melanoma cells used for in vivo metastasis assays were transduced with a stably expressed retroviral construct encoding a luciferase reporter gene (Ponomarev et al., 2004), allowing us to monitor the in vivo progression of melanoma cells by bioluminescence imaging. The following numbers of melanoma cells, resuspended in 100 μL of PBS, were injected intravenously via the tail-vein: 4×10^4 MeWo cells, 2.5×10^5 HT-144 cells, 2×10^5 SK-Mel-334.2 cells, 5×10^4B16F10 cells, and 1×10^5 YUMM cells. The MeWo, HT-144, and SK-Mel-334.2 cells were injected into 6-8 week-old sex-matched NOD scid mice, while the B16F10 and YUMM cells were injected into 6-8 week-old sex-matched C57BL/6 mice. […] To assess the effect of GW3965 treatment on brain metastasis, 1×10^5 MeWo brain-metastatic derivatives were injected intracardially into athymic nude mice. Immediately following injection, mice were randomly assigned to a control diet or GW3965-supplemented diet (100 mg/kg). To determine whether oral delivery of GW3965 can inhibit the progression of incipient metastasis, NOD Scid mice were intravenously injected with 4×10^4 MeWo cells and the cells were allowed to colonize the lungs for 42 days, after which mice were blindedly assigned to a control diet or a GW3965-supplemented diet (100 mg/kg) treatment.

[4] = tested on: MDA-468 human breast cancer cells; test: MDA-468 breast cancer tumor growth in Nod Scid gamma mice; assay type: in vivo; conditions: GW3965-supplemented diet 75 mg/kg/day
Method: The mice were assigned to a control diet treatment or a GW3965-supplemented diet treatment (75 mg/kg/day) two days prior to injection of the cancer cells.

[5] = tested on: SK-Mel-334.2 primary human melanoma line; test: Subcutaneous SK-Mel-334.2 tumor growth in immunocompromised mice; assay type: in vivo; conditions: oral, GW3965-supplemented diet
ApoE = ApoE expression by qRT-PCR in human melanoma cells; assay type: cell-based; conditions: parental MeWo cells; GW3965 48 hours
Method: Total RNA was extracted from various cell lines using the miRvana kit (AM1560, Applied Biosystems, Austin, Tex.). The expression levels of mature miRNAs were quantified using the Taqman miRNA expression assay (4427975-0002228, Applied Biosystems). RNU44 was used as an endogenous control for normalization. For mRNA expression analyses, 600 ng of total RNA was reverse transcribed using the cDNA First-Strand Synthesis Kit (18080-051, Invitrogen), and roughly 200 ng of the resulting cDNA was then mixed with SYBR green PCR Master Mix (4309155, Applied Biosystems) and the appropriate primers. Each reaction was performed in quadruplicate, and mRNA expression was quantified by performing real-time PCR amplification using an ABI Prism 7900HT Real-Time PCR System (Applied Biosystems). GAPDH was used as an endogenous control for normalization. The following primers were used: […]
RNA was extracted from whole cell lysates using the Total RNA Purification Kit (17200, Norgen, Thorold, Canada). 600 ng of total RNA was then reverse transcribed into cDNA using the cDNA First-Strand Synthesis Kit (18080-051, Invitrogen), and quantitative real-time PCR amplification was performed as previously described (Pencheva et al., 2012) using an ABI Prism 7900HT Real-Time PCR System (Applied Biosystems, Austin, Tex.). Each PCR reaction was carried out in quadruplicates. Gene expression was normalized to GAPDH, which was used as an endogenous control.
For every sample, 600 ng of RNA was reverse transcribed into cDNA using the cDNA First-Strand Synthesis kit (Invitrogen). Approximately 200 ng of cDNA was mixed with SYBR® green PCR Master Mix and the corresponding forward and reverse primers specific for detection of human ApoE. Each reaction was carried out in quadruplicates, and ApoE mRNA expression levels were measured by quantitative real-time PCR amplification using an ABI Prism 7900HT Real-Time PCR System (Applied Biosystems). The relative ApoE expression was determined using the ΔΔCt method. GAPDH was used as an endogenous control for normalization purposes.

[6] = tested on: HT-144 melanoma line, SK-Mel-334.2 primary melanoma line; test: Lung metastatic colonization by HT-144 and SK-Mel-334.2 cells in NOD scid mice; assay type: in vivo, human
Method: Melanoma cells used for in vivo metastasis assays were transduced with a stably expressed retroviral construct encoding a luciferase reporter gene (Ponomarev et al., 2004), allowing us to monitor the in vivo progression of melanoma cells by bioluminescence imaging. The following numbers of melanoma cells, resuspended in 100 μL of PBS, were injected intravenously via the tail-vein: 4×10^4 MeWo cells, 2.5×10^5 HT-144 cells, 2×10^5 SK-Mel-334.2 cells, 5×10^4B16F10 cells, and 1×10^5 YUMM cells. The MeWo, HT-144, and SK-Mel-334.2 cells were injected into 6-8 week-old sex-matched NOD scid mice, while the B16F10 and YUMM cells were injected into 6-8 week-old sex-matched C57BL/6 mice. In all experiments assessing at the effects of GW3965 on metastasis formation, mice were pre-treated on a control diet or a GW3965-supplemented diet (20 mg/kg) for 10 days. To assess the effect of GW3965 treatment on brain metastasis, 1×10^5 MeWo brain-metastatic derivatives were injected intracardially into athymic nude mice. Immediately following injection, mice were randomly assigned to a control diet or GW3965-supplemented diet (100 mg/kg). […]

MeWo-LM2 cells = test: Lung metastatic colonization by MeWo-LM2 cells in NOD-SCID mice; assay type: in vivo, human; conditions: cells pre-incubated with recombinant ApoE 100 μg/mL for 24 hours before i.v. injection
Method: After 8 hours, the transfection media was replaced with fresh media. After 48 hours, 1×10^5 cells were injected intravenously into NOD-SCID mice to assess lung metastatic colonization or through intracardiac injection into athymic nude mice to assess systemic metastasis. For cell invasion and endothelial recruitment in vitro assays, the cells were used 96 hours post-transfection.

O=C(O)Cc1cccc(OCCCN(Cc2cccc(C(F)(F)F)c2Cl)CC(c2ccccc2)c2ccccc2)c1 [GW3965 2, 3-[3-[N-(2-Chloro-3-trifluoromethylbenzyl)-(2,2-diphenylethyl)amino]propyloxy] phenylacetic acid hydrochloride]
suppression of tumor growth [1]: 72%
survival of mice bearing vemurafenib-resistant melanoma burden [1]: significantly prolonged
overall survival time [2]: substantially prolonged
overall survival [3]: extended
tumor growth and lung metastasis [3]: robustly inhibited
breast cancer tumor size [4]: significant reduction
tumor growth inhibition [5]: 73%
expression of ApoE (ApoE): increased
metastatic colonization ([6]; HT-144 melanoma line): suppressed
metastatic colonization ([6]; SK-Mel-334.2 primary melanoma line): suppressed

recombinant human ApoE: recombinant human ApoE3 (4696, BioVision)
suppression of metastatic colonization (MeWo-LM2 cells): over 300 fold
